Measurements reported in patent US20210290514A1, “An Antimicrobial Combination Composition Comprising Glycerol Derivatives and Bicyclic Compounds” (CLARIANT INTERNATIONAL LIMITED, priority 2018, published 2021).

What was measured:
Experiment in all cases: in vitro growth inhibition of a microbial strain by compositions formulated to pH 5.5
Assay type in all cases: cell-based
[1] = test system: Aspergillus brasilliensis
Description: (§1) Several antimicrobial combinations compositions were formulated to pH of 5.5. These compositions were tested for their ability to inhibit in vitro the growth of a microbial strain. “Green” indicates a substantial inhibition, “Yellow” indicates an intermediate inhibition, and “Red” indicates little to no inhibition.

[2] = test system: Candida albicans
Description: as §1

[3] = test system: Echerichia coli
Description: as §1

[4] = test system: Pseudomonas aeruginosa
Description: as §1

[5] = test system: Staphylococcus aureus
Description: as §1

Compound | antimicrobial activity, Aspergillus brasilliensis ([1]; 0.5%) | antimicrobial activity, Aspergillus brasilliensis ([1]; 0.8%) | antimicrobial activity, Aspergillus brasilliensis ([1]; 1.0%) | antimicrobial activity, Aspergillus brasilliensis ([1]; 1.5%) | antimicrobial activity, Candida albicans ([2]; 0.5%) | antimicrobial activity, Candida albicans ([2]; 0.8%) | antimicrobial activity, Candida albicans ([2]; 1.0%) | antimicrobial activity, Candida albicans ([2]; 1.5%) | antimicrobial activity, Echerichia coli ([3]; 0.5%) | antimicrobial activity, Echerichia coli ([3]; 0.8%) | antimicrobial activity, Echerichia coli ([3]; 1.0%) | antimicrobial activity, Echerichia coli ([3]; 1.5%) | antimicrobial activity, Pseudomonas aeruginosa ([4]; 0.5%) | antimicrobial activity, Pseudomonas aeruginosa ([4]; 0.8%) | antimicrobial activity, Pseudomonas aeruginosa ([4]; 1.0%) | antimicrobial activity, Pseudomonas aeruginosa ([4]; 1.5%) | antimicrobial activity, Staphylococcus aureus ([5]; 0.5%) | antimicrobial activity, Staphylococcus aureus ([5]; 0.8%) | antimicrobial activity, Staphylococcus aureus ([5]; 1.0%) | antimicrobial activity, Staphylococcus aureus ([5]; 1.5%)
CCCCCCCCOCC(O)CO (stereo not shown) [Octylglycerin, 3-[(n-octyl)oxy]-1,2-propanediol] | Yellow | Green | Yellow | Yellow | Green | Green | Green | Green | Green | Green | Green | Green | Green | Green | Green | Green | Green | Green | Green | Green
CCCCC(CC)COCC(O)CO (stereo not shown) [Velsan ethylhexylglycerin, 3-[(2-ethylhexyl)oxy]-1,2-propanediol] | Red | Red | Red | Red | Green | Green | Green | Green | Green | Green | Green | Green | Green | Green | Green | Green | Green | Green | Green | Green
